Source: the supplement of paper PMC10307832

Experiments:
Assay in all cases: relative viability (nuclei count vs DMSO), 5 days (fraction); higher = more cells survive
[1] = compound: COC1=CC=C(C=C1)CN2C=CC3=C2C=C(C=C3)C(=O)NO + CC(=O)c1c(C)c2cnc(Nc3ccc(N4CCNCC4)cn3)nc2n(C2CCCC2)c1=O [Palbociclib] (partner 0.5 µM)
In short: (§1)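 Relative viability equals treated-well nuclei counts divided by vehicle-well nuclei counts. Counts came from 4× images of lung cancer cell lines grown in 1536-well plates for 5 days after pin-tool dosing on the day after seeding. Dosing used one drug alone or a fixed anchor-drug dose plus five library-drug doses (not always all listed) in √10 steps, and values are medians of duplicate plates.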

[2] = compound: COC1=CC=C(C=C1)CN2C=CC3=C2C=C(C=C3)C(=O)NO + Cc1nc(Nc2ncc(C(=O)Nc3c(C)cccc3Cl)s2)cc(N2CCN(CCO)CC2)n1 [Dasatinib] (partner 0.075 µM)
In short: as §1

Veliparib + Bortezomib = compound: C[C@]1(c2nc3c(C(N)=O)cccc3[nH]2)CCCN1 [Veliparib] + CC(C)C[C@H](NC(=O)[C@H](Cc1ccccc1)NC(=O)c1cnccn1)B(O)O [Bortezomib] (partner 0.002 µM)
In short: as §1

Veliparib + Alpelisib = compound: C[C@]1(c2nc3c(C(N)=O)cccc3[nH]2)CCCN1 [Veliparib] + Cc1nc(NC(=O)N2CCC[C@H]2C(N)=O)sc1-c1ccnc(C(C)(C)C(F)(F)F)c1 [Alpelisib] (partner 2 µM)
In short: as §1

In the case of SW 1573, the relative viability ([1]; first compound 0.253 µM) is reported as 0.397, the relative viability ([1]; first compound 0.8 µM) is reported as 0.474 and the relative viability ([1]; first compound 2.53 µM) is reported as 0.392. It also gave a relative viability ([1]; first compound 8 µM) of 0.326, a relative viability ([2]; first compound 0.253 µM) of 0.545 and a relative viability ([2]; first compound 0.8 µM) of 0.702. The relative viability ([2]; first compound 2.53 µM) was 0.561, the relative viability ([2]; first compound 8 µM) was 0.322 and the relative viability (Veliparib + Bortezomib; first compound 0.02 µM) was 0.951. For the same cell line, the relative viability (Veliparib + Bortezomib; first compound 0.06325 µM) was 0.982, the relative viability (Veliparib + Bortezomib; first compound 0.2 µM) was 1.07 and the relative viability (Veliparib + Bortezomib; first compound 0.6325 µM) was 0.862. It also gave a relative viability (Veliparib + Bortezomib; first compound 2 µM) of 1.06, a relative viability (Veliparib + Alpelisib; first compound 0.02 µM) of 0.803 and a relative viability (Veliparib + Alpelisib; first compound 0.06325 µM) of 0.867. For the same cell line, the relative viability (Veliparib + Alpelisib; first compound 0.2 µM) was 0.791, the relative viability (Veliparib + Alpelisib; first compound 0.6325 µM) was 0.675 and the relative viability (Veliparib + Alpelisib; first compound 2 µM) was 0.805.
